Experimental data published in patent publication US10131661B2, “High-solubility acetone-added pyrroloquinoline quinone salt” (Mitsubishi Gas Chemical Company, Inc., priority 2015, dated 2018).
≈ marks a conversion by molar mass, not a printed value.

Experiments:
[1] = Storage stability in a solid state, visual check after 1 month; assay type: physicochemical
Procedure: The HOP alkali metal salt fabricated in each Example was subjected to cold storage (4° C.) and room-temperature storage (23° C.) in a solid state, and changes after a lapse of 1 month were visually checked.

physchem = conditions: 30 °C, water, thermodynamic from solid
Procedure: (§1) Water in such an amount that the HOP alkali metal salt fabricated in each Example remained undissolved was added to 100 mg of the HOP alkali metal salt. The resultant solution was allowed to stand still at 30° C. for 1 hour or more. Then, the solution was centrifugally separated to thereby separate a supernatant liquid and the HOP alkali metal salt remaining undissolved, and thereafter, the supernatant was diluted and the absorbance at 360 nm was measured. The solubility was calculated from the obtained absorbance.

[2] = test system: Human uterine cancer cells, HeLa cells; experiment: Cell activity test (cell number by Cell Counting Kit 8); assay type: cell-based; conditions: 2 days
Procedure: Human uterine cancer cells, HeLa cells, were scattered on 96 wells so as to be 1,000 cells/well, and were cultivated in a DMEM (Invitrogen Corp.)+10% FBS culture medium under the condition of a 5% CO2 concentration and 37° C. in an incubator for one night. Thereafter, the HOP alkali metal salt fabricated in each Example was added to the culture medium so that the concentration of the HOP alkali metal salt became 4.9 mg/L and 19.5 mg/L. Further the cultivation was continued further for 2 days, and thereafter, the culture medium was removed from the wells; the well interiors were washed; and the number of the cells in the wells were measured by using a Cell Counting Kit 8 manufactured by Dojindo Laboratories. There are shown in the following Table the results in the case where the number of the cells when no HOP alkali metal salt was added to the culture medium was taken to be 100.

[3] = Chemical stability: color change on mixing with ascorbic acid aqueous solution; assay type: physicochemical; conditions: 10 mg sample, 200 μl of 10 mass % ascorbic acid aqueous solution
Procedure: [Chemical Stability] The HOP disodium fabricated in Example 1 and pyrroloquinoline quinone disodium were tested. 10 mg of the each sample was put in a test tube, and 200 μl of a 10 mass % ascorbic acid aqueous solution was mixed.

[4] = Measurement of the solubility (30° C.) of a HOP alkali metal salt to water; conditions: 1 hour or more, absorbance at 360 nm
Procedure: as §1

Row | Cold Storage (4° C.): visual change [1] | Room-Temperature Storage (23° C.): visual change [1] | Compound | further results
1 | no change | no change | HOP disodium hydrogen carbonate cocrystal | –
2 | no change | no change | HOP trisodium hydrogen carbonate cocrystal | –
3 | no change | – | CC(=O)CC1(O)C(=O)c2cc(C(=O)O)[nH]c2-c2c(C(=O)O)cc(C(=O)O)nc21 (centres unmarked) [HOP free form, 5-Hydroxy-4-oxo-5-(2-oxopropyl)-4,5-dihydro-1H-pyrrolo[2,3-f]quinoline-2,7,9-tricarboxylic acid, reference compound] | solubility (physchem): 2900 µM (≈ 1130 µg/mL); number of the cells (no addition taken to be 100) ([2]; 4.9 mg/L): 95; number of the cells (no addition taken to be 100) ([2]; 19.5 mg/L): 103
4 | no change | no change | HOP 2.5 sodium | –

Further lines, the compound ahead of its results:

Row | Compound | Cold Storage (4° C.): visual change [1] | Room-Temperature Storage (23° C.): visual change [1] | further results
5 | CC(=O)CC1(O)C(=O)c2cc(C(=O)[O-])[nH]c2-c2c(C(=O)[O-])cc(C(=O)[O-])nc21.[Li+].[Li+].[Li+] (racemic) [HOP trilithium] | no change | – | –
6 | O=C(O)c1cc(C(=O)O)c2c(n1)C(=O)C(=O)c1cc(C(=O)O)[nH]c1-2 [PQQ free form, pyrroloquinoline quinone] | – | – | solubility (physchem): 1000 µM (≈ 330 µg/mL)
7 | CC(=O)CC1(O)C(=O)c2cc(C(=O)[O-])[nH]c2-c2c(C(=O)[O-])cc(C(=O)[O-])nc21.[Na+].[Na+].[Na+] (racemic) [HOP trisodium] | no change | change to brown | number of the cells (no addition taken to be 100) ([2]; 4.9 mg/L): 128; number of the cells (no addition taken to be 100) ([2]; 19.5 mg/L): 121
8 | O=C(O)c1cc(C(=O)O)c2c(n1)C(=O)C(=O)c1cc(C(=O)O)[nH]c1-2.[Na].[Na] [PQQ disodium, pyrroloquinoline quinone disodium, reference compound] | – | – | solubility (physchem): 7500 µM; color change with ascorbic acid [3]: changed in the color to black
9 | O=C(O)c1cc(C(=O)O)c2c(n1)C(=O)C(=O)c1cc(C(=O)O)[nH]c1-2 [PQQ trisodium, reference compound] | – | – | Saturated Solubility [4]: 35 mmol/L
10 | HOP disodium | no change | no change | Saturated Solubility [4]: 290 mmol/L; number of the cells (no addition taken to be 100) ([2]; 4.9 mg/L): 116; number of the cells (no addition taken to be 100) ([2]; 19.5 mg/L): 130; color change with ascorbic acid [3]: no large change in the color
11 | CC(=O)CC1(O)C(=O)c2cc(C(=O)[O-])[nH]c2-c2c(C(=O)[O-])cc(C(=O)[O-])nc21.[K+].[K+].[K+] (centres unmarked) [HOP tripotassium] | no change | – | –
12 | HOP dipotassium | no change | no change | –
13 | HOP 2.9 sodium | no change | no change | –
14 | HOP dilithium | no change | no change | –
